The CC50 is the concentration giving 50% cytotoxicity. A low value points to harm at low concentration. Broadly, the pEC50 is the negative decadic logarithm of the EC50, by convention in mol/L.

Molecules are shown by their SMILES. pEC50: −log10 of the molar value. Bounds are passed on as bounds.

Data on 20 compounds can be found in patent US20240254118A1, “PRMT5 INHIBITORS AND USES THEREOF” (Gilead Sciences, Inc., priority 2022, published 2024).

Assay [1] relates to HCT116 MTAP-deleted cells. The assay can be described thus: Cell viability assay (CellTiter-Glo, 7 days), HCT116 MTAP-deleted. The conditions noted are these: Homo sapiens, HCT-116, 168 h. (In general: Cellular ATP, detected with luciferase, serves as a proxy for viable cell number.)
Assay [2] deals with SDMA signal (PRMT5 inhibition) in HCT116 MTAP-deleted cells. Kind of assay: Symmetric di-methyl arginine image-based high content screen assay (SDMA assay), HCT116 MTAP-deleted. It counts as cell-based. Particulars: SDMA assay; for pEC50: Homo sapiens, HCT-116, 72 h, 3 days of treatment, cell line not given, taken as HCT116 MTAP-deleted, read-out: EC50 (SDMA assay); for EC50 selectivity (SDMA assay): taken as HCT116 WT versus MTAP-deleted. In outline:
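HCT116 MTAP-deleted cells treated with compound until Day 3, then formalin-fixed, permeabilized and immunostained for SDMA, with DAPI nuclear counterstain. Imaged by high-content microscopy; SDMA read-out is mean Alexa 488 intensity per DAPI-defined cell, reflecting PRMT5 inhibition.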

`CC(=O)N(C)N(Cc1ccc(-c2ccn(C(F)(F)F)n2)cc1F)C(=O)c1ccc2nc(N)c3cnn(C)c3c2c1` [Example 249, N′-acetyl-4-amino-N-(2-fluoro-4-(1-(trifluoromethyl)-1H-pyrazol-3-yl)benzyl)-N′,1-dimethyl-1H-pyrazolo[4,3-c]quinoline-8-carbohydrazide] had a CC50 in assay [1] of less than 100 nM. Also, in assay [2], the pEC50 was more than 9.00 and the “EC50 selectivity (SDMA assay)” value worked out at 193.

Regarding `CC(=O)N(C)N(Cc1ccc(-c2csc(C(F)(F)F)n2)cc1F)C(=O)c1ccc2nc(N)c3cnn(C)c3c2c1` [Example 250, N′-acetyl-4-amino-N-(2-fluoro-4-(2-(trifluoromethyl)thiazol-4-yl)benzyl)-N′,1-dimethyl-1H-pyrazolo[4,3-c]quinoline-8-carbohydrazide], the CC50 in assay [1] is less than 100 nM. Also, in assay [2], the pEC50 is more than 9.00 and the “EC50 selectivity (SDMA assay)” value was found to be 153.

In turn, `COC(=O)N(C)N(Cc1ccc(C(F)(F)F)cn1)C(=O)c1ccc2nc(N)c3cnn(C)c3c2c1` [Example 253, methyl 2-(4-amino-1-methyl-1H-pyrazolo[4,3-c]quinoline-8-carbonyl)-1-methyl-2-((5-(trifluoromethyl)pyridin-2-yl)methyl)hydrazine-1-carboxylate] came in with a CC50 in assay [1] of less than 100 nM. In addition, in assay [2], the pEC50 was more than 9.00 and the “EC50 selectivity (SDMA assay)” value came out at 28.

`[2H]C([2H])(c1ccc(C(F)(F)F)cn1)N(C(=O)c1ccc2nc(N)c3cnn(C([2H])([2H])[2H])c3c2c1)N(C)C(=O)C1CC1` [Example 254, 4-amino-N′-(cyclopropanecarbonyl)-N′-methyl-1-(methyl-d3)-N-((5-(trifluoromethyl)pyridin-2-yl)methyl-d2)-1H-pyrazolo[4,3-c]quinoline-8-carbohydrazide] yielded a CC50 in assay [1] of less than 100 nM. Moreover, in assay [2], the pEC50 was more than 9.00 and the “EC50 selectivity (SDMA assay)” value was 266.

For the compound `CN(C(=O)[C@H]1C[C@@H]1F)N(Cc1ccc(C(F)(F)F)cn1)C(=O)c1ccc2nc(N)c3cnn(C)c3c2c1` [Example 255, 4-amino-N′-((1R,2S)-2-fluorocyclopropane-1-carbonyl)-N′,1-dimethyl-N-((5-(trifluoromethyl)pyridin-2-yl)methyl)-1H-pyrazolo[4,3-c]quinoline-8-carbohydrazide], in assay [1], the CC50 was less than 100 nM. Moreover, in assay [2], the pEC50 is more than 9.00 and the “EC50 selectivity (SDMA assay)” value turned out to be 51.

Regarding `[2H]C([2H])(c1ccc(C(F)(F)F)cn1)N(C(=O)c1ccc2nc(N)c3cnn(C)c3c2c1)N(C)C(=O)C1CC1` [Example 256, 4-amino-N′-(cyclopropanecarbonyl)-N′,1-dimethyl-N-((5-(trifluoromethyl)pyridin-2-yl)methyl-d2)-1H-pyrazolo[4,3-c]quinoline-8-carbohydrazide], the CC50 in assay [1] is less than 100 nM. For the same compound, in assay [2], the pEC50 was more than 9.00 and the “EC50 selectivity (SDMA assay)” value is recorded as 130.

Compound `[2H]C([2H])([2H])n1ncc2c(N)nc3ccc(C(=O)N(Cc4ccc(C(F)(F)F)cn4)N(C)C(=O)C4CC4)cc3c21` [Example 257, 4-amino-N′-(cyclopropanecarbonyl)-N′-methyl-1-(methyl-d3)-N-((5-(trifluoromethyl)pyridin-2-yl)methyl)-1H-pyrazolo[4,3-c]quinoline-8-carbohydrazide] came in with a CC50 in assay [1] of less than 100 nM. Besides, in assay [2], the pEC50 is more than 9.00 and the “EC50 selectivity (SDMA assay)” value is on record as 213.

`CN(C(=O)[C@H]1C[C@H]1F)N(Cc1ccc(C(F)(F)F)cn1)C(=O)c1ccc2nc(N)c3cnn(C)c3c2c1` [Example 258, 4-amino-N′-((1R,2R)-2-fluorocyclopropane-1-carbonyl)-N′,1-dimethyl-N-((5-(trifluoromethyl)pyridin-2-yl)methyl)-1H-pyrazolo[4,3-c]quinoline-8-carbohydrazide] gave a CC50 in assay [1] of less than 100 nM. For the same compound, in assay [2], the pEC50 was 8.30 to 9.00 and the “EC50 selectivity (SDMA assay)” value was determined as 221.

With `CN(C(=O)C1CC1)N(Cc1nc2cc(Cl)ccc2o1)C(=O)c1ccc2nc(N)c3cnn(C)c3c2c1` [Example 259, 4-amino-N-((5-chlorobenzo[d]oxazol-2-yl)methyl)-N′-(cyclopropanecarbonyl)-N′,1-dimethyl-1H-pyrazolo[4,3-c]quinoline-8-carbohydrazide], the CC50 in assay [1] is less than 100 nM. In assay [2], the pEC50 is 8.30 to 9.00 and the “EC50 selectivity (SDMA assay)” value came to 182.

Regarding `Cn1ncc2c(N)nc3ccc(C(=O)N(Cc4ccc(C(F)(F)F)cn4)N4C(=O)O[C@@H]5CC[C@@H]54)cc3c21` [Example 260, 4-amino-1-methyl-N-((1R,5S)-3-oxo-2-oxa-4-azabicyclo[3.2.0]heptan-4-yl)-N-((5-(trifluoromethyl)pyridin-2-yl)methyl)-1H-pyrazolo[4,3-c]quinoline-8-carboxamide], the CC50 in assay [1] is less than 100 nM. Further, in assay [2], the pEC50 was 8.30 to 9.00 and the “EC50 selectivity (SDMA assay)” value is given as 211.

As for `CC(=O)N(C)N(Cc1ncc(C(F)(F)F)cc1Cl)C(=O)c1ccc2nc(N)c3cnn(C)c3c2c1` [Example 261, N′-acetyl-4-amino-N-((3-chloro-5-(trifluoromethyl)pyridin-2-yl)methyl)-N′,1-dimethyl-1H-pyrazolo[4,3-c]quinoline-8-carbohydrazide], the CC50 in assay [1] was less than 100 nM. In assay [2], the pEC50 was 8.30 to 9.00 and the “EC50 selectivity (SDMA assay)” value was 257.

For `CN(C(=O)[C@H]1C[C@H]1F)N(Cc1ncc(C(F)(F)F)cc1F)C(=O)c1ccc2nc(N)c3cnn(C)c3c2c1` [Example 262, 4-amino-N-((3-fluoro-5-(trifluoromethyl)pyridin-2-yl)methyl)-N′-((1R,2R)-2-fluorocyclopropane-1-carbonyl)-N′,1-dimethyl-1H-pyrazolo[4,3-c]quinoline-8-carbohydrazide], in assay [1], the CC50 was less than 100 nM. Further, in assay [2], the pEC50 is 8.30 to 9.00 and the “EC50 selectivity (SDMA assay)” value turned out to be 169.

On to `[2H]C([2H])(c1ccc(C(F)(F)F)cc1F)N(C(=O)c1ccc2nc(N)c3cnn(C)c3c2c1)N(C)C(=O)C1CC1` [Example 263, 4-amino-N′-(cyclopropanecarbonyl)-N-((2-fluoro-4-(trifluoromethyl)phenyl)methyl-d2)-N′,1-dimethyl-1H-pyrazolo[4,3-c]quinoline-8-carbohydrazide], for which the CC50 in assay [1] was less than 100 nM. In addition, in assay [2], the pEC50 was more than 9.00 and the “EC50 selectivity (SDMA assay)” value stood at 46.

The compound `[2H]C([2H])(c1ccc(C(F)(F)F)cc1F)N(C(=O)c1ccc2nc(N)c3cnn(C)c3c2c1)N(C)C(C)=O` [Example 264, N′-acetyl-4-amino-N-((2-fluoro-4-(trifluoromethyl)phenyl)methyl-d2)-N′,1-dimethyl-1H-pyrazolo[4,3-c]quinoline-8-carbohydrazide] returned a cytotoxic concentration (CC50) in assay [1] of less than 100 nM. Moreover, in assay [2], the pEC50 is more than 9.00 and the “EC50 selectivity (SDMA assay)” value is given as 281.

`CCC(=O)N(C)N(Cc1ncc(C(F)(F)F)cc1F)C(=O)c1ccc2nc(N)c3cnn(C)c3c2c1` [Example 265, 4-amino-N-((3-fluoro-5-(trifluoromethyl)pyridin-2-yl)methyl)-N′,1-dimethyl-N′-propionyl-1H-pyrazolo[4,3-c]quinoline-8-carbohydrazide] had a CC50 in assay [1] of less than 100 nM. For the same compound, in assay [2], the pEC50 is more than 9.00 and the “EC50 selectivity (SDMA assay)” value was 209.

The compound `[2H]C([2H])([2H])N(C(C)=O)N(Cc1ccc(C(F)(F)F)cc1F)C(=O)c1ccc2nc(N)c3cnn(C([2H])([2H])[2H])c3c2c1` [Example 266, N′-acetyl-4-amino-N-(2-fluoro-4-(trifluoromethyl)benzyl)-N′,1-bis(methyl-d3)-1H-pyrazolo[4,3-c]quinoline-8-carbohydrazide] registered a 50% cytotoxic concentration (CC50) in assay [1] of less than 100 nM. Moreover, in assay [2], the pEC50 was more than 9.00 and the “EC50 selectivity (SDMA assay)” value was determined as 63.

In the case of `Cc1cc(CN(C(=O)c2ccc3nc(N)c4cnn(C)c4c3c2)N(C)C(=O)C2CC2)ncc1Cl` [Example 267, 4-amino-N-((5-chloro-4-methylpyridin-2-yl)methyl)-N′-(cyclopropanecarbonyl)-N′,1-dimethyl-1H-pyrazolo[4,3-c]quinoline-8-carbohydrazide], in assay [1], the CC50 is less than 100 nM. In addition, in assay [2], the pEC50 was 8.30 to 9.00 and the “EC50 selectivity (SDMA assay)” value is 223.

Consider `[2H]C([2H])([2H])n1ncc2c(N)nc3ccc(C(=O)N(Cc4ccc(C(F)(F)F)cc4F)N(C)C(C)=O)cc3c21` [Example 270, N′-acetyl-4-amino-N-(2-fluoro-4-(trifluoromethyl)benzyl)-N′-methyl-1-(methyl-d3)-1H-pyrazolo[4,3-c]quinoline-8-carbohydrazide], for which, in assay [1], the CC50 is less than 100 nM. Also, in assay [2], the pEC50 is more than 9.00 and the “EC50 selectivity (SDMA assay)” value was found to be 129.

As to `CC(=O)N(C)N(Cc1ncc(C(F)(F)F)cc1F)C(=O)c1ccc2nc(N)c3cnn(C)c3c2c1` [Example 271, N′-acetyl-4-amino-N-((3-fluoro-5-(trifluoromethyl)pyridin-2-yl)methyl)-N′,1-dimethyl-1H-pyrazolo[4,3-c]quinoline-8-carbohydrazide], the CC50 in assay [1] is less than 100 nM. Moreover, in assay [2], the pEC50 was more than 9.00 and the “EC50 selectivity (SDMA assay)” value is recorded as 86.

The compound `CN(C(=O)C1CC1)N(Cc1cc(F)c(F)cc1F)C(=O)c1ccc2nc(N)c3cnn(C)c3c2c1` [Example 272, 4-amino-N′-(cyclopropanecarbonyl)-N′,1-dimethyl-N-(2,4,5-trifluorobenzyl)-1H-pyrazolo[4,3-c]quinoline-8-carbohydrazide] yielded a CC50 in assay [1] of less than 100 nM. In assay [2], the pEC50 is more than 9.00 and the “EC50 selectivity (SDMA assay)” value was found to be 466.
